Values of other authors, collected in patent publication US20240000752A1, “MICROSUSPENSION AGAINST PARASITES AND METHOD FOR OBTAINING SAME” (Ipanema Industria de Productos Veterinarios Ltda, priority 2020, published 2024).

Tests used:
[1] = tested on: Ostertagia ostertagi Cooperia pectinata, Cooperia punctata, Trichostrongylus axei, Trichostrongylus colubriformis, Oesophagostomum radiatum, Haemonchus placei …

SMILES | pka | solubility in water | efficacy against endoparasites and ectoparasites [1]
CCC[S+]([O-])c1ccc2[nH]c(NC(=O)OC)nc2c1 (stereo not drawn) [albendazole sulfoxide] | 7.8 | low solubility in water | –
CO[C@H]1C[C@H](O[C@H]2[C@H](C)O[C@@H](O[C@@H]3/C(C)=C/C[C@@H]4C[C@@H](C[C@]5(C=C[C@H](C)[C@@H](C6CCCCC6)O5)O4)OC(=O)[C@@H]4C=C(C)[C@@H](O)[C@H]5OC/C(=C\C=C\[C@@H]3C)[C@]54O)C[C@@H]2OC)O[C@@H](C)[C@@H]1O [doramectin] | – | – | effective
